Series [1] relates to patients with PAH or CTEPH. As to the kind of experiment: Phase 1b, inhaled single doses in patients with PAH or CTEPH: pulmonary vascular resistance (PVR), mPAP by right heart catheterization. In kind it is in vivo, human. As to the method:
Patients with PAH or CTEPH were treated in a clinical phase 1b study with escalating orally inhaled single doses* of 240 μg (2 capsules of 120 μg), 480 μg, 1000 μg, 2000 (2 capsules of 1000 μg) or […] (4 capsules of 1000 μg) of a dry powder of example 4 (see under C-1, e.g. tables 17 and 20), inserted into a handheld inhalation device, inhaled by deep inhalative breath into the deep parts of the lung. (*single dose means the administration of one dosage form/capsule as well as administration of two or more dosage forms/capsules simultaneously or consecutively within a short time period). The included patients had no background treatment with standard of care (SoC) medication for PAH or CTEPH (such as endothelin antagonists, prostanoids, phosphodiesterase type 5 inhibitor or soluble guanylate cyclase stimulators). Patients in this study underwent invasive right heart catheterization as medically indicated routine diagnostic. Primary objective of the study was to investigate the peak percent reduction from baseline in PVR. Patients had to have a baseline pulmonary artery pressure (mPAP) of ≥25 mmHg and a PVR of ≥400 dyn·sec·cm^−5 (5 Wood Units) and were not to show vaso-responsiveness to initial iNO inhalation testing to be included in the per protocol analysis. Plasma concentrations (pharmacokinetics) of the administered drug at several time points after administration were measured and safety and tolerability was assessed.
The study is divided into two parts, Part A and Part B. In Part A escalating aforementioned single doses were administered to patients without background treatment with standard of care (SoC) medication for PAH or CTEPH (such as endothelin antagonists, prostanoids, phosphodiesterase type 5 inhibitor or soluble guanylate cyclase stimulators). In Part B, after finalization of Part A, a selected dose from Part A will be tested in further patients without background SoC treatment (group 1) and additionally in patients on monotherapy with SoC (group 2) and on dual combination therapy with SoC (group 3).
The PVR is a derived parameter from parameters directly measured during the right heart catheterization procedure. The direct parameters included in the calculation are: mean pulmonary arterial pressure [mmHg](mPAP), pulmonary capillary wedge pressure [mmHg](PCWP), and cardiac output [1/min](CO). The PVR is calculated according to the formula: PVR [dyn*sec*cm^−5]=80*(mPAP−PCWP)/CO.

Series [2] in a line: Micronization of monohydrate II and monohydrate I (spiral jet mill): solid form after micronization. The note with it: example 8e: 100 mm spiral jet mill. In kind it is physicochemical. The source says: Generally no amorphization even partial nor form conversion should happen during the necessary micronization step.
The corresponding batches (examples 8a-8d) were micronized using a 50 mm spiral jet mill and pressurized nitrogen with the following parameters (see table 16b).
The corresponding batches were micronized using a 100 mm spiral jet mill and pressurized nitrogen with the following parameters (see table 16c).

Series [3] in a line: Deposited lung dose with absorbing filters and prediction of human dose (PAH minipig model). In kind it is in vivo. As to the method:
The anesthetized thromboxane A2 challenged PAH-minipig model (see experimental part E-1) is considered to be the most relevant and sensitive model for the prediction of the human minimal effective and effective doses (MED, ED). To determine effective LDs, experiments were repeated with the difference that absorbing filters were attached at the end of the tubes to determine the deposited lung dose. […] Assuming a minimal effective ND of 3 μg/kg (5% reduction in PAP) the minimal effective deposited LD is considered as 0.15 μg/kg (see FIG. 1).
The nominal doses of 3, 10, 30 and 100 μg/kg of the minipig model were multiplied by the filter deposition factor of 5% resulting in 0.15, 0.5, 1.5 and 5 μg/kg lung deposited doses in the minipig. These values were multiplied by 60 kg to achieve the lung dose in humans. Thus, the FPD reflecting the PAP reduction for a 60 kg human are calculated to be 9, 30, 90 and 300 μg.
Thus, via a direct up-scaling from minipig, the predictive MED (5% PAP reduction) for a human based on a 60 kg body weight is calculated to be 9 μg LDD, not considering protein binding within the respiratory tract. As a surrogate for unbound concentrations, which are the likely active concentrations in the lung, we considered respective differences in fractions unbound in plasma of minipig and human. This consideration results in a minimum effective lung dose (LD) for a 60 kg participant of 41 μg LDD for the assumed 5% reduction on PAP. Consequently, the predictive minimal human effective dose is in the range from 9 μg LDD to 41 μg LDD based on a 60 kg body weight (see FIG. 2).
In order to generate a human dose estimate, experiments in the PAH minipig model for comparative example 11 were repeated with the difference that absorbing filters were attached at the end of the tubes to […] determine the deposited lung dose. […] The arithmetic mean of the aerosol fraction deposited on the filters is 5% based on all results of the filter experiments, resulting in relative lung deposited doses of about 0.15 μg/kg (3 μg/kg nominal dose), 0.5 μg/kg (10 μg/kg nominal dose), 1.5 μg/kg (30 μg/kg nominal dose) and 5 μg/kg (100 μg/kg nominal dose). Assuming a minimal effective nominal dose of 3 μg/kg for a 5% reduction in PAP and a mean nebulization efficiency of 5%, the minimal effective deposited lung dose is considered as 0.15 μg/kg based on the PAH minipig model. Therefore, for a human patient of 60 kg body weight a minimal effective lung deposited dose of 9-41 μg, depending on whether or not an effect of different protein binding (see table 37) is postulated. Considering 100 μg/kg as effective dose in the minipig model, 300-1370 μg lung deposited dose is postulated as effective dose, again depending on the consideration of different interspecies protein binding.

The next series deals with plasma proteins. Briefly: Protein binding via Transil assay, human plasma. In kind it is in vitro ADME. The note with it: human plasma. The source says: The distribution of a test substance between Transil® (phosphatidylcholine lipid bilayers immobilized on silica beads) and plasma is a characteristic feature of any pharmaceutical compound and is dependent on its extent of binding to plasma proteins. By comparing the distribution between Transil® and buffer with the distribution between Transil® and plasma of any species of interest, the unbound fraction in the plasma of the respective animal species can be calculated in vitro. The respective plasma and buffer concentrations were determined via a radioactivity analysis. A detailed description of the method and its validation was published by Schuhmacher et al. (2).

For series [4], the system named is chronic ovalbumin asthma mice model. Briefly: Chronic ovalbumin asthma mice model. The conditions noted are these: mouse, in vivo.

Regarding `O=C(O)c1ccc(CCN(CCc2ccccc2OCc2ccc(-c3ccc(C(F)(F)F)cc3)cc2Cl)[C@H]2CCCc3nc(C(=O)O)ccc32)cc1` [Example 4, (5S)—{[2-(4-Carboxyphenyl)ethyl][2-(2-{[3-chloro-4′-(trifluoromethyl)biphenyl-4-yl]methoxy}phenyl)-ethyl]amino}-5,6,7,8-tetrahydroquinoline-2-carboxylic Acid as Monohydrate I], in series [1] (1000 μg inhaled single dose, N = 4, 0 D 03 H 00 M), the “mean pulmonary arterial pressure (mPAP), mean ± SD” value was 34.0 ± 11.6 mmHg. Moreover, the “enduring mean change of PVR from baseline” value in series [1] (2000 μg group) and in series [1] (4000 μg group) was “approximately −30%” throughout. Besides, the “effect sustained with no decrease in response until end of measurement period” value in series [1] (PVR after single inhaled dose) was at least 3 h. Further, in series [1] (including the highest dose of 4000 μg), the tolerability entry is “good tolerability”. Further, in series [2], the “stability under micronization conditions” value was “stable”.

For the compound `O=C(O)c1ccc(CCN(CCc2ccccc2OCc2ccc(-c3ccc(C(F)(F)F)cc3)cc2Cl)[C@H]2CCCc3nc(C(=O)O)ccc32)cc1` [Comparative example 11, (5S)-5-{[2-(4-carboxyphenyl)ethyl][2-(2-{[3-chloro-4′-(trifluoromethyl)[biphenyl]-4-yl]methoxy}phenyl)ethyl]amino}-5,6,7,8-tetrahydroquinoline-2-carboxylic Acid], the “Relative lung deposited dose in minipig” value in series [3] (3 μg/kg nominal dose) was 0.15 µg/kg; in series [3] (10 μg/kg nominal dose), 0.50 µg/kg; in series [3] (30 μg/kg nominal dose), 1.5 µg/kg; in series [3] (100 μg/kg nominal dose), 5.0 µg/kg. Further, the “free fraction, lower than comparative example 1” value in the series on plasma proteins was found to be 2 times lower. Further, the “effect on airway hyper-responsiveness and inflammation” value in series [4] is “inhibitory effect on airway hyper-responsiveness and inflammation”.

(Values after patent US20250281480A1, “PHARMACEUTICAL DRY POWDER INHALATION FORMULATION” (Bayer Aktiengesellschaft, priority 2021, published 2025).)
